Measurements taken from ChEMBL document CHEMBL5131529, “KRAS Inhibitors and Target Engagement Technology: From Undruggable to Druggable Targets in Cancer Therapeutics” (ACS Med Chem Lett, 2022).

What was measured:
GTPase KRas [1] = biological target: T1, GTPase KRas (Homo sapiens, UniProt P01116, G12C); assay: Inhibition of BODIPY loaded KRAS G12C mutant (unknown origin) assessed as inhibition of GDP-GTP exchange rate in presence of SOS1/GppNHp incubated for 2 hr by BODIPY fluorescence assay
GTPase KRas [2] = biological target: T1, GTPase KRas; assay: Inhibition of KRAS G12C mutant in human MIA PaCa-2 cells assessed as reduction in ERK phosphorylation incubated for 2 to 4 hrs by HTRF assay; format: cell-based

T1 sequence (P01116 whole entry G12C): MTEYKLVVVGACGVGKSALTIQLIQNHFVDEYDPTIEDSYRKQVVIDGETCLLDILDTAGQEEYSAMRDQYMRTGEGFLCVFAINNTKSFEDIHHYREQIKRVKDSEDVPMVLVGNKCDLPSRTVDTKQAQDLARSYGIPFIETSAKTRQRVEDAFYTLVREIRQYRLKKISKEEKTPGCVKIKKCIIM

| SMILES | IC50 (GTPase KRas [1]) [nM] | IC50 (GTPase KRas [2]) [nM] | IC50 (GTPase KRas [2]; mia paca-2) [nM] |
| --- | --- | --- | --- |
| C=Cc1ncc2n1CCN(c1nc(OCCN3CCOCC3)nc3c(F)c(-c4cc(O)cc5ccccc45)c(Cl)cc13)C2 | 100 | 5000 | – |
| C=Cc1ncc2n1CCN(c1nc(=O)n(-c3c(C)ccnc3C(C)C)c3nc(-c4c(O)cccc4F)c(F)cc13)C2 | 100 | 5000 | 5000 |
| C=Cc1ncc2n1CCN(c1nc(OCC3CCCN3C)nc3c(F)c(-c4c(C)ccc5[nH]ncc45)c(Cl)cc13)C2 (stereo not drawn) | 100 | 5000 | – |
| C=Cc1ncc2n1CCN(c1nc(OC3CCCN(C)C3)nc3c(F)c(-c4cc(O)cc5ccccc45)c(Cl)cc13)C2 (stereo not drawn) | 100 | 5000 | – |
| C=Cc1ncc2n1CCN(c1nc(OC3CCN(C)CC3)nc3c(F)c(-c4cc(O)cc5ccccc45)c(Cl)cc13)C2 | 100 | 5000 | – |
| C=Cc1ncc2n1CCN(c1nc(OCC3CCCN3C)nc3c(F)c(-c4c(O)cccc4F)c(Cl)cc13)C2 (stereo not drawn) | 100 | 5000 | – |
| C=Cc1ncc2n1CCN(c1nc(OC[C@@H]3CCCN3C)nc3c(F)c(-c4cc(O)cc5ccccc45)c(Cl)cc13)C2 | 100 | 1000 | – |
| C=Cc1ncc2n1CCN(c1nc(=O)n(C(C)C)c3nc(-c4c(O)cccc4F)c(F)cc13)C2 | 100 | 5000 | – |
| C=Cc1ncc2n1CCN(c1nc(OCC3CCCN3C)nc3c(F)c(-c4cc(O)cc5ccccc45)c(Cl)cc13)C2 (stereo not drawn) | ≤ 100 | 1000 | – |
| C=Cc1ncc2n1CCN(c1nc(=O)n(CC3CC3)c3nc(-c4c(O)cccc4F)c(F)cc13)C2 | 100 | 5000 | – |
| C=Cc1ncc2n1CCN(c1nc(OCCN(C)C)nc3c(F)c(-c4cc(O)cc5ccccc45)c(Cl)cc13)C2 | 100 | 1000 | – |
